Assay results: patent US20220056043A1, “NITROGEN-CONTAINING FUSED CYCLIC COMPOUND, PREPARATION METHOD THEREFOR AND USE THEREOF” (SICHUAN KELUN-BIOTECH BIOPHARMACEUTICAL CO., LTD., priority 2019, published 2022)
Counter-ions that a name gives are not always drawn. Blank lines part the entries; values can stand above or below the compound they belong to.

What was measured:
[1] = target: T1, hNLRP3 inflammasome (Homo sapiens, UniProt Q96P20); test: Agonistic effect on the expression of IL-1β in THP-1 cells after PMA-induced differentiation (HTRF); assay type: cell-based; conditions: IL-1β level, PMA-differentiated THP-1 cells, 6 hours
T1 construct: endogenous in cells; host or cells: THP-1 cells, PMA-differentiated
Description: Experimental Example 1: Agonistic Effect of the Compound of the Invention on the Expression of IL-1β in THP-1 Cells after PMA-Induced Differentiation
In this test, a HTRF (homogeneous time-resolved fluorescence) detection method was used to test the effect of the compound of the invention on the level of downstream cytokine IL-1β of NLRP3 to evaluate the agonistic effect of the compound on hNLRP3 inflammasome or hNLRP3 inflammasome pathway at a cellular level.
Reagent: RPMI 1640 (Hyclone); heat-inactivated FBS (fetal bovine serum) (Gibco); PMA (phorbol myristal acetate) (Beyotime)
Kit: IL-1β assay kit (CISIO)
1) THP-1 cells in a logarithmic growth phase were seeded in a T75 culture flask at a density of 5×10^5 cells/well, and cultured in a cell incubator at 37° C., 5% CO2 for 24 hours, and then 1 μM PMA was used to induce THP-1 suspension cells to become adherent macrophages. The medium was RPMI 1640 containing 10% heat-inactivated FBS and 0.05 mM β-mercaptoethanol.
2) The cells were induced and cultured for 24 hours. Then the adherent cells were trypsinized and centrifuged at 1000 rpm for 5 min. The supernatant was removed, and the cells were resuspended to a density of 2×10^6 cells/mL in RPMI 1640 medium containing 2% heat-inactivated FBS. 50 μL/well of cell resuspension was taken and spread on a 96-well plate such that the number of cells in each well was 1×10^5.
3) An appropriate amount of 10 mM DMSO solution of the compound to be tested was taken and diluted to a concentration of 2× test concentration with RPMI 1640 medium containing 2% heat-inactivated FBS. 50 μL/well of the dilution was added to the cells in the 96-well plate, and mixed well. The plate was placed in a cell incubator at 37° C., 5% CO2 for 6 hours. The supernatant was collected, and the level of IL-1β was measured in accordance with the instructions of the IL-1β detection kit.
4) EC50 was fitted by the GraphPad software log(agonist) vs. response—Variable slope four-parameter method.

[2] = system: CT26 mouse colon cancer subcutaneously transplanted tumor; test: In vivo efficacy on bilaterally inoculated CT26 mouse colon cancer subcutaneously transplanted tumor; conditions: for tumor volume (mm^3) day 0 / tumor volume (mm^3) day 14: twice a week for two weeks; for tumor volume (mm^3) day 0: day 0 (grouping); for tumor volume (mm^3) day 14 / TGI (%): day 14
Description: Experimental Example 7: In Vivo Efficacy of the Compounds of the Invention on Bilaterally Inoculated CT26 Mouse Colon Cancer Subcutaneously Transplanted Tumor
1) CT26 mouse colon cancer cells were cultured in a monolayer in vitro. When the cells were in a logarithmic growth phase, the cells were collected by centrifugation and counted.
2) 0.1 ml of PBS resuspension containing 3×10^5 CT26 cells was inoculated subcutaneously in the bilateral shoulder blades of mice respectively. When the bilateral scapular tumors of the mice grew to a volume of about 100 mm^3, the mice were randomly divided into 4 groups according to the bilateral tumor volumes, 8 mice in each group.
3) Compound 115s was injected into the tumor at the right scapular tumor of mice at 10 μg/time, 50 μg/time, and 250 μg/time, respectively, twice a week for two consecutive weeks. The bilateral tumor volumes and the body weight of the animals were measured.
4) Tumor inhibition rate, TGI (%), was calculated based on the tumor volumes to evaluate the inhibitory effect of Compound 115s on the growth of transplanted tumors in the mice. The calculation formula was: TGI (%)=100%−(TVt−TV0)/(CVt−CV0)×100%. When the tumor was regressing, the calculation formula was: TGI (%)=100%−(TVt−TV0)/TV0×100%, wherein TV0 was the average tumor volume of the tested compound group at the time of grouping; TVt was the average tumor volume of the tested compound group at the time of measurement on the t^th day; CV0 was the average tumor volume of the vehicle group at the time of grouping; and CVt was the average tumor volume of the vehicle group at the time of measurement on the t^th day. For statistical analysis of differences between the two groups, student's t-test was used to calculate the P value.

[3] = administration side, 10 μg/time intratumoral
[4] = administration side, 50 μg/time intratumoral
[5] = administration side, 250 μg/time intratumoral
[6] = non-administration side, 10 μg/time intratumoral (other side)
[7] = non-administration side, 50 μg/time intratumoral (other side)
[8] = non-administration side, 250 μg/time intratumoral (other side)

T1 sequence (Q96P20 whole entry): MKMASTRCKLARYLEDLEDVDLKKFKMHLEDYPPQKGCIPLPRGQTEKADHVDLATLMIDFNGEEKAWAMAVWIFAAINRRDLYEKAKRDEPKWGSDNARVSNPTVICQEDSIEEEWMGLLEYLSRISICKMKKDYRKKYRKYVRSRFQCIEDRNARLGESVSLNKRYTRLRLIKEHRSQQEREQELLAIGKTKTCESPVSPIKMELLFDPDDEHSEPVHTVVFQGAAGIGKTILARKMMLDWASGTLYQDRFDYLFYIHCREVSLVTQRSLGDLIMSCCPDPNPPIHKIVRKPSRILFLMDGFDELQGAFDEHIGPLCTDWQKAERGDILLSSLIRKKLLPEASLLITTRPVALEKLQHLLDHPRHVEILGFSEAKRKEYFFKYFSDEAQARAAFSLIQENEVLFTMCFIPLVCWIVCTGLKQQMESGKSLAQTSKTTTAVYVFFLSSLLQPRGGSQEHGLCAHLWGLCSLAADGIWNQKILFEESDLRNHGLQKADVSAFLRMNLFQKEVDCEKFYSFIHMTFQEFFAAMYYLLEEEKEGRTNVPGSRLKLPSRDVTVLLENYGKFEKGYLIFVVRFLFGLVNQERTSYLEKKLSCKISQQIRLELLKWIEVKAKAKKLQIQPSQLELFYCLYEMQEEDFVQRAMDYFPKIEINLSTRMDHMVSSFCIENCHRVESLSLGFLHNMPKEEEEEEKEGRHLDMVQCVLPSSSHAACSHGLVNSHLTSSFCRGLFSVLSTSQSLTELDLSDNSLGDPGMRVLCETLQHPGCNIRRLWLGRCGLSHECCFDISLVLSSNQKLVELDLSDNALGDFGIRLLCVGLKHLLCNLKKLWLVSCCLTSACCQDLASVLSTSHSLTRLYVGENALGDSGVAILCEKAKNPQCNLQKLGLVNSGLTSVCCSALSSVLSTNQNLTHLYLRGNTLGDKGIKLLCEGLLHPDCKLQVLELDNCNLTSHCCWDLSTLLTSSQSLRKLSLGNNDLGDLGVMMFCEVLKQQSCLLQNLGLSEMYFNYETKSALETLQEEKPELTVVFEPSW

EC50 [1]: 0.01 µM
Structure (SMILES): COCCNc1cc(N)nc2cc(-c3ccn[nH]3)sc12 [Compound 100s, N^7-(2-methoxyethyl)-2-(1H-pyrazol-5-yl)thieno[3,2-b]pyridine-5,7-diamine hydrochloride]

EC50 [1]: 0.03 µM
Structure (SMILES): Nc1cc(NC2CCCC2)c2sc(-c3ccn[nH]3)cc2n1 [Compound 110s, N^7-cyclopentyl-2-(1H-pyrazol-5-yl)thieno[3,2-b]pyridine-5,7-diamine hydrochloride]

EC50 [1]: 0.01 µM
Structure (SMILES): CCC(CC)Nc1cc(N)nc2cc(-c3ccn[nH]3)sc12 [Compound 113s, N^7-(pent-3-yl)-2-(1H-pyrazol-5-yl)thieno[3,2-b]pyridine-5,7-diamine hydrochloride]

Structure (SMILES): CC(C)(CO)CNc1cc(N)nc2cc(-c3ccn[nH]3)sc12.Cl [Compound 115s, 3-((5-amino-2-(1H-pyrazol-5-yl)thieno[3,2-b]pyridin-7-yl)amino)-2,2-dimethyl-1-propanol hydrochloride]
tumor volume (mm^3) day 0 [2, 3]: 74.63 ± 6.26 mm^3 | tumor volume (mm^3) day 14 [2, 3]: 499.05 ± 211.28 mm^3 | TGI (%) [2, 3]: 77.46% | tumor volume (mm^3) day 0 [2, 4]: 74.03 ± 4.69 mm^3 | tumor volume (mm^3) day 14 [2, 4]: 61.66 ± 41.15 mm^3 | TGI (%) [2, 4]: 144.99% | tumor volume (mm^3) day 0 [2, 5]: 74.00 ± 4.41 mm^3 | tumor volume (mm^3) day 14 [2, 5]: 0.00 ± 0.00 mm^3 | TGI (%) [2, 5]: 200.00% | tumor inhibitory effect on the non-administration side tumors ([2]; intratumoral injection at the other side, in words): significant dose-dependent tumor inhibitory effect | anti-tumor effect on the subcutaneous tumor at the administration side ([2]; intratumoral injection, compared with the vehicle group, in words): significant dose-dependent anti-tumor effect | tumor inhibitory effect on bilateral CT26 subcutaneous tumors ([2]; intratumoral injection, summary in words): significant dose-dependent tumor inhibitory effect | tumor volume (mm^3) day 0 [2, 6]: 85.21 ± 7.40 mm^3 | tumor volume (mm^3) day 14 [2, 6]: 1269.99 ± 140.11 mm^3 | TGI (%) ([2]; non-administration side, 10 μg/time): 38.94% | tumor volume (mm^3) day 0 [2, 7]: 85.31 ± 6.01 mm^3 | tumor volume (mm^3) day 14 [2, 7]: 869.87 ± 99.95 mm^3 | TGI (%) ([2]; non-administration side, 50 μg/time): 59.57% | tumor volume (mm^3) day 0 [2, 8]: 85.17 ± 6.28 mm^3 | tumor volume (mm^3) day 14 [2, 8]: 462.85 ± 52.91 mm^3 | TGI (%) ([2]; non-administration side, 250 μg/time): 80.54%

EC50 [1]: 0.05 µM
Structure (SMILES): Nc1cc(NCC(F)F)c2sc(-c3ccn[nH]3)cc2n1 [Compound 116s, N^7-(2,2-difluoroethyl)-2-(1H-pyrazol-5-yl)thieno[3,2-b]pyridine-5,7-diamine hydrochloride]

EC50 [1]: 0.03 µM
Structure (SMILES): Nc1cc(NCC2CCOCC2)c2sc(-c3ccn[nH]3)cc2n1 [Compound 120s, 2-(1H-pyrazol-5-yl)-N^7-((tetrahydro-2H-pyran-4-yl)methyl)thieno[3,2-b]pyridine-5,7-diamine hydrochloride]
